SMILES strings stand for the structures. Structures can show the parent of a compound that is named as a salt.

In this assay the target is T1, DPP-IV from porcine kidney (Sus scrofa, UniProt P22411).
T1 construct: DPP-IV from porcine kidney (Sigma Chemical Co, Munich DE); purchased Sigma Chemical Co, Munich DE; host or cells: porcine kidney (tissue-derived)
T1 sequence (P22411 whole entry): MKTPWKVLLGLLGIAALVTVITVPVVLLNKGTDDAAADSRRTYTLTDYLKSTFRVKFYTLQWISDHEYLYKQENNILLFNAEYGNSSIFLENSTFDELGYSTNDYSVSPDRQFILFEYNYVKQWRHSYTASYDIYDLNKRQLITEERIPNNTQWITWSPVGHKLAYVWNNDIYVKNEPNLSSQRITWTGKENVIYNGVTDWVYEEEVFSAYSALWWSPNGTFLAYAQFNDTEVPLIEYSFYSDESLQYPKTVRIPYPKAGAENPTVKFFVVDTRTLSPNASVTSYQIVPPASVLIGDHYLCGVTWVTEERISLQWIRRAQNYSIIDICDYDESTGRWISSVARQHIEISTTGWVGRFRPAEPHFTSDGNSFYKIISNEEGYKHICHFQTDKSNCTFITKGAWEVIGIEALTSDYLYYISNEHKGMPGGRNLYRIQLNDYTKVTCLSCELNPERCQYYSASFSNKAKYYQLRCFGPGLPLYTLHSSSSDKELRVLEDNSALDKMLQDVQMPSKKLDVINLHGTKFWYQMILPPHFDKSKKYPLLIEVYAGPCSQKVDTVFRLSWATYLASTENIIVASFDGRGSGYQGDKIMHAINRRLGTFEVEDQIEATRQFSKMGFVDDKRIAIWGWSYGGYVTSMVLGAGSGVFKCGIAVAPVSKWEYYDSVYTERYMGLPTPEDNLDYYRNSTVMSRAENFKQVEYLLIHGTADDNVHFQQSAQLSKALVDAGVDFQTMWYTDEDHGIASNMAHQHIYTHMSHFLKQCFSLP
Description: Measurement of the DPP-IV activity (fluorimetric H-Ala-Pro-AFC conversion). In kind it is biochemical. The conditions noted are these: substrate H-Ala-Pro-AFC 15 μM, DPP-IV 1 mU/ml, Tris/HCl pH 7.4, room temperature. As for the experimental part: a) Measurement of the DPP-IV Activity:
DPP-IV from porcine kidney (Sigma Chemical Co, Munich DE)
H-Ala-Pro-AFC (Bachem Chemical Co, Weil am Rhein DE)
Dipeptidyl peptidase-IV (DPP-IV) (1 mU/ml, final concentration)
H-Ala-Pro-AFC (15 μM, final concentration) in Tris/HCl (40 mM, pH 7.4), total volume 0.2 ml
The reaction was carried out at room temperature for various times (typically 10 min) and stopped at the end of the reaction by adding 20 μl of ZnCl2(1M). The H-Ala-Pro-AFC conversion was determined fluorimetrically by measuring the emission at 535 nm after excitation at 405 nm. When inhibitors were added, the added buffer volume was adapted so that a total volume of 200 μl was maintained for the assay mixture.
IC50 values for inhibitors were determined by varying the inhibitor concentrations with the stated substrate concentration of 15 μM. Ki and Km values were found by appropriate variation of substrate concentration and inhibitor concentration as described (Dixon, M. and Webb, E. C.(1979) Enzymes, third edition, pp. 47-206, Academic Press). The values for Km, IC50 and Ki were calculated using a commercially available software package (Leatherbarrow, R. J. (1992) GraFit Version 3.0, Erithacus Software Ltd. Staines, U.K.).
For `Cn1c(=O)n(CC(=O)c2ccccc2)c(=O)c2c1nc(SC1(CN)CCCC1)n2Cc1ccccc1` [Example 63, 8-(1-Aminomethylcyclopentylsulfanyl)-7-benzyl-3-methyl-1-(2-oxo-2-phenyl-ethyl)-3,7-dihydropurine-2,6-dione trifluoroacetate], the IC50 – broadly, the point on the concentration scale where inhibition reaches its midpoint – came out at 14 nM.

As to `CCn1c(=O)n(CC(=O)c2ccccc2)c(=O)c2c1nc(SC(C)(C)CN)n2CC=C(C)C` [Example 23, 8-(2-Amino-1,1-dimethylethylsulfanyl)-3-ethyl-7-(3-methylbut-2-enyl)-1-(2-oxo-2-phenylethyl)-3,7-dihydropurine-2,6-dione], the half-maximal inhibitory concentration (IC50) worked out at 4.5 nM.

`CC(C)=CCn1c(SC(C)(C)CN)nc2c1c(=O)n(Cc1nc3cc(F)ccc3s1)c(=O)n2C` [Example 19, 8-(2-Amino-1,1-dimethylethylsulfanyl)-1-(5-fluorobenzothiazol-2-ylmethyl) -3-methyl-7-(3-methylbut-2-enyl)-3,7-dihydropurine-2,6-dione]: half-maximal inhibition (IC50) was put at 24 nM.

For `CC(C)=CCn1c(SCCN)nc2c1c(=O)n(CC(=O)c1ccccc1)c(=O)n2C` [Example 3, 8-(2-Aminoethylsulfanyl)-3-methyl-7-(3-methylbut-2-enyl)-1-(2-oxo-2-phenylethyl)-3,7-dihydropurine-2,6-dione], the IC50 worked out at 72 nM.

As for `CC(C)=CCn1c(SC(C)(C)CN)nc2c1c(=O)n(CCc1ccccc1)c(=O)n2C1CC1` [Example 25, 8-(2-Amino-1,1-dimethylethylsulfanyl)-3-cyclopropyl-7-(3-methylbut-2-enyl) -1-phenethyl-3,7-dihydropurine-2,6-dione], the IC50 stood at 48 nM.

With `CC(C)=CCn1c(SC(C)(C)CN)nc2c1c(=O)n(CC(=O)c1ccccc1)c(=O)n2CC(F)(F)F` [Example 36, 8-(2-Amino-1,1-dimethylethylsulfanyl)-7-(3-methylbut-2-enyl)-1-(2-oxo-2-phenylethyl)-3-(2,2,2-trifluoroethyl)-3,7-dihydropurine-2,6-dione], 21 nM corresponded to half-maximal inhibition (IC50).

`CC(C)=CCn1c(SCC(C)(C)N)nc2c1c(=O)n(CC(=O)c1ccccc1)c(=O)n2C` [Example 10, 8-(2-Amino-2-methylpropylsulfanyl)-3-methyl-7-(3-methylbut-2-enyl)-1-(2-oxo-2-phenylethyl)-3,7-dihydropurine-2,6-dione]: the 50% inhibitory concentration (IC50) amounted to 120 nM.

`CC(C)=CCn1c(SC(C)(C)CN)nc2c1c(=O)[nH]c(=O)n2C` [Example 5, 8-(2-Amino-1,1-dimethylethylsulfanyl)-3-methyl-7-(3-methylbut-2-enyl)-3,7-dihydropurine-2,6-dione] came in with an IC50 of 84 nM.

`CC(C)=CCn1c(SC(C)(C)CN)nc2c1c(=O)n(Cc1nnc(C3CC3)s1)c(=O)n2C` [Example 12, 8-(2-Amino-1,1-dimethylethylsulfanyl)-1-(5-cyclopropyl-[1,3,4]thiadiazol-2-ylmethyl)-3-methyl-7-(3-methylbut-2-enyl)-3,7-dihydropurine-2,6-dione] registered an IC50 of 90 nM.

In the case of `CC(C)=CCn1c(SC(C)(C)CN)nc2c1c(=O)n(Cc1cc(C)on1)c(=O)n2C` [Example 21, 8-(2-Amino-1,1-dimethylethylsulfanyl)-3-methyl-7-(3-methylbut-2-enyl)-1-(5-methylisoxazol-3-ylmethyl)-3,7-dihydropurine-2,6-dione hydrochloride], the IC50 is 170 nM.

In the case of `CC#CCn1c(SC(C)(C)CN)nc2c1c(=O)n(CC(=O)c1ccccc1)c(=O)n2C` [Example 26, 8-(2-Amino-1,1-dimethylethylsulfanyl)-7-but-2-ynyl-3-methyl-1-(2-oxo-2-phenylethyl)-3,7-dihydropurine-2,6-dione], inhibition was half-maximal at 27 nM (IC50).

For `CC(C)=CCn1c(SC(C)(C)CN)nc2c1c(=O)n(CC(=O)c1ccccc1)c(=O)n2C` [Example 1, 8-(2-Amino-1,1-dimethylethylsulfanyl)-3-methyl-7-(3-methylbut-2-enyl)-1-(2-oxo-2-phenylethyl)-3,7-dihydropurine-2,6-dione], the midpoint of inhibition, the IC50, lay at 1.7 nM.

Compound `CC(C)=CCn1c(SC(C)(C)CN)nc2c1c(=O)n(CC(=O)c1cccc(Cl)c1)c(=O)n2C` [Example 43, 8-(2-Amino-1,1-dimethylethylsulfanyl)-1-[2-(3-chlorophenyl)-2-oxoethyl]-3-methyl-7-(3-methylbut-2-enyl)-3,7-dihydropurine-2,6-dione] showed an IC50 of 30 nM.

For the compound `CC(C)=CCn1c(SC(C)(C)CN)nc2c1c(=O)n(CC(=O)c1ccccc1Cl)c(=O)n2C` [Example 42, 8-(2-Amino-1,1-dimethylethylsulfanyl)-1-[2-(2-chlorophenyl)-2-oxoethyl]-3-methyl-7-(3-methylbut-2-enyl)-3,7-dihydropurine-2,6-dione], it took 16 nM to reach half-maximal inhibition (IC50).

For the compound `CC(C)=CCn1c(SC2(CN)CCCC2)nc2c1c(=O)n(CC(=O)c1ccccc1)c(=O)n2C` [Example 64, 8-(1-Aminomethylcyclopentylsulfanyl)-3-methyl-7-(3-methylbut-2-enyl)-1-(2-oxo-2-phenylethyl)-3,7-dihydropurine-2,6-dione trifluoroacetate], the IC50 turned out to be 7 nM.

Compound `CC(C)=CCn1c(SC(C)(C)CN)nc2c1c(=O)n(CC(=O)c1ccccc1)c(=O)n2C1CC1` [Example 24, 8-(2-Amino-1,1-dimethylethylsulfanyl)-3-cyclopropyl-7-(3-methylbut-2-enyl) -1-(2-oxo-2-phenylethyl)-3,7-dihydropurine-2,6-dione] returned an IC50 of 9.4 nM.
